Here are results for two molecules from paper PMC10537356, “Analyzing the Material Basis of Anti-RSV Efficacy of Lonicerae japonicae Flos Based on the PK-PD Model” (Molecules, 2023).

One data set has as its system RSV. To be noted: by inhibiting virus–cell fusion in the early stage and cell–cell fusion at the end of the RSV replication cycle; cited from earlier work.
The nature of data set [1]: Pharmacokinetic study of 15 LJF components in plasma of RSV-infected mice after oral LJF extract (UHPLC-QQQ MS). It is filed as in vivo. To be noted: RSV mice plasma, oral LJF extract 12.0 g/kg; for AUC(0-t) / AUC(0-inf) / Cmax / MRT last / half-life / Tmax: mouse, n = 6; for AUC(0-t) / AUC(0-inf) / Cmax / MRT last / half-life: plasma, po, 12 g/kg; for AUC(0-t): read-out: AUC(0–t); for AUC(0-inf): read-out: AUC(0–∞); for Cmax: read-out: Cmax; for MRT last: read-out: MRT(0–t); for half-life: read-out: T1/2 (converted); for Tmax: read-out: Tmax. How it is done: The LJF (12.0 g) were pulverized and soaked in pure water at a solid: liquid ratio of 1:200 and followed by extraction for 30 min. Then, the LJF extract was obtained by filtration, centrifugation (5000 rpm, 10 min) and concentration. Finally, the remains were freeze-dried and stored at −20 °C for subsequent pharmacokinetic assays.
All mice fasted for 1 night after being acclimatized for 7 days (no water restriction) and were randomly separated into 3 groups with 6 mice in each group. One group of healthy mice was used as the normal control group and administered physiological saline; the model group was established by intranasal infusion of RSV (TCID50 = 10^−6, 35 μL/mouse) and administered physiological saline. Members of the drug group were orally administered with LJF extract at the dose of 12 g/kg after infecting RSV. At 0.25 h, 0.5 h, 0.75 h, 1 h, 1.5 h, 2 h, 3 h,4 h, 6 h, 8 h, 10 h, 12 h and 24 h after administration blood samples (approximately 500 μL) were collected into anticoagulant tubes. The blood samples were centrifuged at 3500 rpm, 4 °C for 10 min, and the plasma (upper layer) was separated and stored at −80 °C till analysis. At the same time, the lung tissue was removed, weighed and placed in the EP tube together with five times the weight of the lung tissue in PBS solution containing 1% PMSF. Subsequently, the tissue samples were homogenized using the tissue grinder, and centrifugation to obtain a supernatant for further examination.
An amount of 50 μL IS and 2 mL acetonitrile were mixed into 200 μL plasma, after which the mixture was centrifuged (12,000 rpm, 4 °C, 10 min) and dried with nitrogen. The residue was dissolved in 70% acetonitrile containing 1% formic acid, centrifuged and subsequently the supernatant (2 μL) was injected into the UHPLC-QQQ-MS system.
Agilent 1260 series (Santa Clara, CA, USA) chromatography system was equipped with a solvent degasser, G1311B quaternary pump and G1329B automated injector. The elution was performed on a Halo® C18 column (2.1 × 100 mm, 2.7 μm) at 30 °C, and the mobile phase consisted of 0.05% formic acid in water for solvent A and 0.05% formic acid in acetonitrile for solvent B at a flow rate of 0.3 mL/min. The gradient elution was as follows: 0–30 min at 5–25% B, 30–35 min at 25–55% B, 35–45 min at 55–70% B, 45–55 min at 70–100% B, and 5 μL for analysis.
The MS/MS analysis was performed by Agilent 6470 Triple Quadrupole LC/MS (Santa Clara, CA, USA) with an ESI source. MRM was selected for the detection of the standards and internal standard with a dwell time of 2 ms. The mass spectrometry conditions were optimized as follows: Nebulizer pressure: 50 psi; capillary: positive: 4000 V, negative: 3500 V; cell acceleration voltage: 5 V; gas temp: 350 °C and flow rate at 10 L/min. The acquired data were processed and analyzed by Mass Hunter Workstation quantitative analysis.
Fifteen standards and IS were optimized for mass conditions by the positive and negative ion modes of the chromatographic system, respectively. The pharmacokinetics of 15 chemical constituents in RSV-infected mice were assessed using the UPLC-QQQ-MS/MS method.
The pharmacokinetic parameters, including maximum concentration (Cmax), time to reach Cmax (Tmax), the elimination half-life (T1/2), mean residence time (MRT), and area under the concentration–time curve (AUC) were calculated using non-compartmental analysis by Phoenix 8.1.0.3530.

The subject of the next data set is viruses. More on the design: method as in PMID 19904996. The following applies: prevents viruses from entering cells; cited from earlier work.

In general, AUC(0-t) refers to the area under the concentration-time curve up to a stated or last time point. The Cmax is the peak of the concentration-time curve. Usually Tmax stands for the time at which the peak concentration occurs. Regarding `O=C(C=Cc1ccc(O)c(O)c1)OC1CC(O)(C(=O)O)CC(O)C1OC(=O)C=Cc1ccc(O)c(O)c1` (stereo not drawn) [Isochlorogenic acid C], in the data set with RSV, the anti-RSV effects result is “specific anti-RSV effects”. Besides, in data set [1], the “shape of the concentration–time curve” value is “double or multiple peaks”, the AUC(0-t) is 926 ± 39 ng·h/mL, the AUC(0-inf) stood at 1450 ng·h/mL and the Cmax came to 560 ± 20.7 ng/mL. In data set [1], the MRT last came to 6.39 ± 0.337 h, the half-life is 26.9 ± 3.16 h and the time of peak concentration (Tmax) was 2 h.

With `C[C@@H]1[C@H]2[C@H](O[C@@H]3O[C@H](CO)[C@@H](O)[C@H](O)[C@H]3O)OC=C(C(=O)O)[C@H]2C[C@@H]1O` [Loganic acid], in data set [1], the AUC(0-t) worked out at 84.9 ± 12.8 ng·h/mL, the AUC(0-inf) came out at 99.3 ± 18.4 ng·h/mL, the Cmax was found to be 87.6 ± 10.9 ng/mL and the MRT last came out at 2.29 ± 0.337 h. Further, in data set [1], the half-life was 2.33 ± 0.429 h and the Tmax was 0.5 h. Besides, the antiviral activity entry with viruses is recorded as “significant antiviral activity”.
